Where “and” joins values, the source holds several entries; their conditions need not be identical. Equal values may be shown once.
How the values were obtained:
A/Fujian/413/2002 (H3N2) = assay type: cell-based, influenza A virus
A/USSR/90/1977 (H1N1) = assay type: cell-based, influenza A virus
[1] = system: A549 human lung carcinoma cells
A/Anhui/1/2013 (H7N9) = assay type: cell-based, influenza A virus
A/Texas/71/2007 (H3N2) = assay type: cell-based, influenza A virus
[2] = system: A/New Jersey/8/1976 (H1N1); assay type: cell-based, influenza A virus
[3] = system: A/Hong Kong/156/1997 (H5N1); assay type: cell-based, influenza A virus
[4] = system: A/Puerto Rico/8/1934 (H1N1); assay type: cell-based, influenza A virus
[5] = system: A/Egypt/N6658/2011 (H5N1); assay type: cell-based, influenza A virus
A/Hawaii/15/2001 (H1N1) = assay type: cell-based, influenza A virus
[6] = system: A/California/07/2009 (H1N1); assay type: cell-based, influenza A virus
A/Indiana/08/2011 (H3N2) = assay type: cell-based, influenza A virus
[7] = system: A/Solomon Islands/03/2006 (H1N1); assay type: cell-based, influenza A virus
[8] = system: A/Vietnam/1203/2004 (H5N1); assay type: cell-based, influenza A virus
[9] = system: A/Indonesia/05/2005 (H5N1); assay type: cell-based, influenza A virus; on Virus titer, replicates 1-3: test concentration or dose not given here
[10] = system: A/Minnesota/19/2011 (H1N1); assay type: cell-based, influenza A virus
[11] = system: A/New Caledonia/20/1999 (H1N1); assay type: cell-based, influenza A virus
A/Alaska/140/2015 (H3N2) = assay type: cell-based, influenza A virus
A/Perth/16/2009 (H3N2) = assay type: cell-based, influenza A virus
[12] = system: A/California/02/2014 (H3N2); assay type: cell-based, influenza A virus; on Virus titer, replicates 1-3: test concentration or dose not given here

## CCOC(=O)C1=C[C@@H](OC(CC)CC)[C@H](NC(C)=O)[C@@H](N)C1 [Oseltamivir, oseltamivir, reference compound]
A/Fujian/413/2002 (H3N2)
  DIF (Difference from Control): -0.58 log10TCID50/mL
  Virus titer AVG: 2.75 log10TCID50/mL
  Virus titer, replicates 1-3: 3.25 log10TCID50/mL and 2.50 log10TCID50/mL (2×)
A/USSR/90/1977 (H1N1)
  DIF (Difference from Control): -4.33 log10TCID50/mL
  Virus titer AVG: 2.42 log10TCID50/mL
  Virus titer, replicates 1-3: 2.50 log10TCID50/mL (2×) and 2.25 log10TCID50/mL
[1]
  % Dif (absorbance as percent relative to the vehicle control, relative viability): 83.88%
A/Anhui/1/2013 (H7N9)
  DIF (Difference from Control): -2.25 log10TCID50/mL
  Virus titer AVG: 1.50 log10TCID50/mL
  Virus titer, replicates 1-3: 1.50 log10TCID50/mL
A/Texas/71/2007 (H3N2)
  DIF (Difference from Control): -0.83 log10TCID50/mL
  Virus titer AVG: 4.00 log10TCID50/mL
  Virus titer, replicates 1-3: 3.50 log10TCID50/mL and 4.75 log10TCID50/mL and 3.75 log10TCID50/mL
[2]
  DIF (Difference from Control): -3.58 log10TCID50/mL
  Virus titer AVG: 1.50 log10TCID50/mL
  Virus titer, replicates 1-3: 1.50 log10TCID50/mL
[3]
  DIF (Difference from Control): -3.08 log10TCID50/mL
  Virus titer AVG: 1.50 log10TCID50/mL
  Virus titer, replicates 1-3: 1.50 log10TCID50/mL
[4]
  DIF (Difference from Control): -2.25 log10TCID50/mL
  Virus titer AVG: 3.25 log10TCID50/mL
  Virus titer, replicates 1-3: 3.75 log10TCID50/mL and 3.25 log10TCID50/mL and 2.75 log10TCID50/mL
[5]
  DIF (Difference from Control): -3.25 log10TCID50/mL
  Virus titer AVG: 2.08 log10TCID50/mL
  Virus titer, replicates 1-3: 2.25 log10TCID50/mL and 1.50 log10TCID50/mL and 2.50 log10TCID50/mL
A/Hawaii/15/2001 (H1N1)
  DIF (Difference from Control): -1.92 log10TCID50/mL
  Virus titer AVG: 2.67 log10TCID50/mL
  Virus titer, replicates 1-3: 2.75 log10TCID50/mL (2×) and 2.50 log10TCID50/mL
[6]
  DIF (Difference from Control): -3.00 log10TCID50/mL
  Virus titer AVG: 2.58 log10TCID50/mL
  Virus titer, replicates 1-3: 2.75 log10TCID50/mL and 2.50 log10TCID50/mL (2×)
A/Indiana/08/2011 (H3N2)
  DIF (Difference from Control): -5.08 log10TCID50/mL
  Virus titer AVG: 3.25 log10TCID50/mL
  Virus titer, replicates 1-3: 2.75 log10TCID50/mL and 3.75 log10TCID50/mL and 3.25 log10TCID50/mL
[7]
  DIF (Difference from Control): -4.25 log10TCID50/mL
  Virus titer AVG: 3.25 log10TCID50/mL
  Virus titer, replicates 1-3: 3.75 log10TCID50/mL and 3.25 log10TCID50/mL and 2.75 log10TCID50/mL
[8]
  DIF (Difference from Control): -2.75 log10TCID50/mL
  Virus titer AVG: 5.17 log10TCID50/mL
  Virus titer, replicates 1-3: 5.25 log10TCID50/mL and 5.50 log10TCID50/mL and 4.75 log10TCID50/mL
[9]
  DIF (Difference from Control): -3.50 log10TCID50/mL
  Virus titer AVG: 4.58 log10TCID50/mL
  Virus titer, replicates 1-3: 4.75 log10TCID50/mL and 4.50 log10TCID50/mL (2×)
[10]
  DIF (Difference from Control): -7.33 log10TCID50/mL
  Virus titer AVG: 1.50 log10TCID50/mL
  Virus titer, replicates 1-3: 1.50 log10TCID50/mL
[11]
  DIF (Difference from Control): -5.67 log10TCID50/mL
  Virus titer AVG: 1.50 log10TCID50/mL
  Virus titer, replicates 1-3: 1.50 log10TCID50/mL
A/Alaska/140/2015 (H3N2)
  DIF (Difference from Control): -3.83 log10TCID50/mL
  Virus titer AVG: 2.92 log10TCID50/mL
  Virus titer, replicates 1-3: 2.50 log10TCID50/mL (2×) and 3.75 log10TCID50/mL
A/Perth/16/2009 (H3N2)
  DIF (Difference from Control): 0.00 log10TCID50/mL
  Virus titer AVG: 4.25 log10TCID50/mL
  Virus titer, replicates 1-3: 4.25 log10TCID50/mL
[12]
  DIF (Difference from Control): -1.58 log10TCID50/mL
  Virus titer AVG: 4.92 log10TCID50/mL
  Virus titer, replicates 1-3: 5.25 log10TCID50/mL and 4.75 log10TCID50/mL (2×)

Source: patent publication US20230158005A1 (priority 2020, published 2023)
